According to patent publication US20180086749A1, “INHIBITORS OF VIRUSES” (priority 2015, published 2018):
Values joined by “and” are separate entries in the source; they are usually repeats but may differ in a detail not shown here. Identical values can stand only once. Like-named read-outs stand apart in the source and are kept apart here.

Assays:
RSV Long = format: cell-based, Respiratory syncytial virus
HSV-2 = format: cell-based, Herpes simplex virus type-2
CHIKV (S27 strain) = CHIKV (S27 strain) CPE assay; format: cell-based, Chikungunya virus
ZIKV/PRVABC59 = test: Dose-response EC50, ZIKV/PRVABC59; format: cell-based; conditions: Zika virus, Vero 76, Vero76, MOI 0.05
in vitro = conditions: African green monkey, CC50 μM (Vero76)
[1] = tested on: innate immune response genes in HEK 293T cells; format: cell-based, human
VEEV (TC83 strain) = test: microbe, parasite or virus in culture; format: cell-based, Venezuelan equine encephalitis virus
WEEV = test: cells; format: cell-based, West equine encephalitis virus California
VEEV TrD = test: microbe, parasite or virus in culture; format: cell-based; conditions: Venezuelan equine encephalitis virus
WNV/NY99 [2] = test: Dose-response EC50, WNV; format: cell-based; conditions: West Nile virus
[3] = tested on: VEEV TrD (Trinidad donkey); format: cell-based, Venezuelan equine encephalitis virus
HEK 293T cells = test: ApoTox-Glo Triplex viability, cytotoxicity, apoptosis assay; conditions: four days exposure
WNV/NY99 [4] = format: cell-based, West Nile virus
VEEV TC-83 = format: cell-based, Venezuelan equine encephalitis virus
[5] = tested on: cellular metabolites of HEK 293T cells; test: Metabolomics analysis of cellular metabolites; format: cell-based, human
HIV-1 = HIV-1 viral infectivity assay (TZM-bl); format: cell-based; set-up: reduction in viral infectivity: dose or concentration left out as unconfirmed
[6] = tested on: IFN α/β in HEK 293T culture supernatant; format: cell-based, human; conditions: 18 hours
SARS-CoV = format: cell-based, Severe acute respiratory syndrome coronavirus
Ebola virus-GFP = test: microbe, parasite or virus in culture; format: cell-based, Zaire ebolavirus
alphaviruses = format: cell-based; conditions: 5 μM
[7] = tested on: HEK-Blue IFN-α/β reporter cells; test: HEK-Blue IFN-α/β cell reporter assay (SEAP); format: cell-based, human
VEEV V3526-luc = test: microbe, parasite or virus in culture; format: cell-based, Venezuelan equine encephalitis virus; conditions: for EC50: Venezuelan equine encephalitis virus
ZIKV/MR766 = test: Dose-response EC50, ZIKV/MR766; format: cell-based; conditions: Zika virus, Vero 76, Vero76, MOI 0.05
JEV = format: cell-based, Japanese Encephalitis virus
Influenza virus A (H1N1) = format: cell-based
YFV 17D = format: cell-based, Yellow Fever virus
[8] = ML416-treated / DMSO-treated, 18 hours
[9] = ML416 / DMSO, metabolite not confirmed by standard

SMILES: CN(C(=O)Cc1sccc1F)c1nc2c(s1)CCCC2 [ML416, 2-(3-fluorothiophen-2-yl)-N-methyl-N-(4,5,6,7-tetrahydro-1,3-benzothiazol-2-yl)acetamide]
- Log titer inhibition at 5 μM (RSV Long): −2.27 ± 0.1 Log
- Log titer reduction (RSV Long; 5 μM): ~2 Log
- Log titer inhibition at 5 μM (HSV-2): 0.01 ± 0.43 Log
- EC50 (CHIKV (S27 strain); Chikungunya virus): 290 nM
- inhibition of CHIKV-induced cytopathic effect (CHIKV (S27 strain); in words): in the nanomolar range
- EC50 (ZIKV/PRVABC59): 2200 nM
- CC50 (in vitro): > 50 µM
- IFIH1 expression [1]: repressed
- IFIT1 gene upregulation [1]: more than 10 fold
- IFNB1 expression [1]: repressed
- IRF7 gene upregulation [1]: more than 10 fold
- MYD88 expression [1]: did not show any changes
- OAS1 expression [1]: did not show any changes
- OAS2 gene upregulation [1]: more than 10 fold
- RIG-I gene upregulation [1]: more than 10 fold
- EC50 (VEEV (TC83 strain); Venezuelan equine encephalitis virus): 350 nM
- EC50 (VEEV (TC83 strain); read-out: VEEV (TC83 strain) CPE Assay Potency mean EC50): 1000 nM and 900 nM
- EC50 (WEEV): 960 nM
- EC50 (VEEV TrD): 460 nM
- EC50 (WNV/NY99 [2]; Table 2): 2400 nM
- EC50 (WNV/NY99 [2]; Vero 76, Vero76, MOI 0.01, Table 3): 2400 nM
- Log titer inhibition at 5 μM [3]: −4.768 Log
- concentration up to which no significant cytotoxicity and apoptosis (HEK 293T cells): up to 25 μM
- Log titer inhibition at 5 μM (WNV/NY99 [4]): −2.05 ± −0.09 Log
- Log titer reduction (WNV/NY99 [4]; 5 μM): ~2 Log
- CC50 (Vero 76 cells): > 50000 nM
- Selective Index 50 (SI50) (Vero 76 cells): 106.9
- concentration up to which no apparent cytotoxicity (Vero 76 cells; African green monkey): up to 12.5 μM
- cytotoxicity (Vero 76 cells; African green monkey): > 40 µM
- cytotoxicity in Vero 76 cells (Vero 76 cells; African green monkey): > 50 µM
- Log titer inhibition at 5 μM (VEEV TC-83): −2.536 ± 0.018 Log
- Fold Change: 3-((carboxymethyl)(methyl)amino)-3-oxopropanoic acid [5, 8]: 0.46 fold
- Fold Change: Citirc acid [5, 8]: 0.62 fold
- Fold Change: D-(−)-Lactic acid [5, 8]: 0.76 fold
- Fold Change: DL-Ornithine [5, 8]: 0.53 fold
- Fold Change: DL-Phenylalanine [5, 8]: 0.71 fold
- Fold Change: Fumaric Acid [5, 8]: 11 fold and 11.00 fold
- Fold Change: Glycine [5, 8]: 2.80 fold
- Fold Change: L-Asparagine [5, 8]: 0.41 fold
- Fold Change: L-Aspartic acid [5, 8]: 2.07 fold
- Fold Change: L-Glutamic acid [5, 8]: 0.09 fold
- Fold Change: L-Isoleucine [5, 8]: 0.45 fold
- Fold Change: L-Lysine [5, 8]: 2.76 fold
- Fold Change: L-Proline [5, 8]: 0.28 fold
- Fold Change: L-Threonine [5, 8]: 0.54 fold
- Fold Change: L-Tyrosine [5, 8]: 0.86 fold
- Fold Change: Lauric acid; Dodecanoic acid [5, 8]: 0.73 fold
- Fold Change: Oxalic acid [5, 8]: 0.66 fold
- Fold Change: Phenylalanine [5, 8]: 0.40 fold
- Fold Change: Pyruvic acid [5, 8]: 1.60 fold
- Fold Change: Tryptophan [5, 8]: 1.23 fold
- presence of free uridine ([5]; ML416-treated groups): not detected
- Fold Change: 1-phenylpropan-2-amine; Amphetamine; Fenopromin* [5, 9]: 0.80 fold
- Fold Change: 2-(Dimethylamino)ethyl neopentyl carbonate* [5, 9]: 1.49 fold
- Fold Change: 3,3-diethoxy-2-hydroxypropyl dihydrogen phosphate* [5, 9]: 0.58 fold
- Fold Change: 3-Glycerophosphate* [5, 9]: 1.71 fold
- Fold Change: 3-hydroxy-2-methylpropanoic acid; 3-Hydroxyisobutyric acid* [5, 9]: 0.70 fold
- Fold Change: Adenine* [5, 9]: 1.37 fold
- Fold Change: Dihydromuconic acid; trans-3-Hexenedioic acid* [5, 9]: 0.23 fold
- Fold Change: Ethylcholine mustard* [5, 9]: 0.49 fold
- Fold Change: L-Norvaline* [5, 9]: 0.52 fold
- Fold Change: Niacinamine* [5, 9]: 0.74 fold
- Fold Change: O-phosphorylethanolamine; 2-aminoethyl dihydrogen phosphate* [5, 9]: 1.35 fold
- Fold Change: Ribitol* [5, 9]: 0.66 fold
- Fold Change: Scyllo-Inositol* [5, 9]: 1.23 fold
- Fold Change: meso-Erythritol; Erythritol* [5, 9]: 0.69 fold
- presence of dihydroorotic acid (DHO) ([5]; ML416 vs mock-treated): found only in ML416-treated groups
- presence of orotic acid ([5]; ML416 vs mock-treated): found only in ML416-treated groups
- inhibition at 10 µM (HIV-1; Human immunodeficiency virus 1, TZM-bl, read-out: inhibition at 10 μM): 94%
- reduction in viral infectivity (HIV-1; TZM-bl reporter system, luciferase): 94%
- IFN α/β in cell culture supernatant [6]: no measurable quantity of IFNs was detected
- antiviral activity (blank spaces of Table 2) (SARS-CoV): initial results have shown activity
- EC50 (Ebola virus-GFP): 260 nM
- EC50 (Ebola virus-GFP; Zaire ebolavirus, HeLa): 300 nM
- Log reduction in progeny virus titers (alphaviruses): greater than 4 Log
- IFN α/β in cell culture supernatant ([7]; HEK 293T supernatant on HEK-Blue IFN-α/β cells): no measurable quantity of IFNs was detected
- SEAP activity ([7]; HEK-Blue IFN-α/β cells treated directly, FIG. 6): did not induce SEAP activity
- antiviral effect (VEEV V3526-luc): moderate effect
- effect of DHO addition on antiviral activity (VEEV V3526-luc): did not affect the antiviral activity
- EC50 (VEEV V3526-luc): 170 nM
- EC50 (VEEV V3526-luc; BHK, read-out: EC50 V3526-luc): 1120 nM
- EC50 (VEEV V3526-luc; HEK-293T, read-out: EC50 V3526-luc): 150 nM
- EC50 (VEEV V3526-luc; N2a, read-out: EC50 V3526-luc): > 50000 nM
- EC50 (VEEV V3526-luc; NIH3T3, read-out: EC50 V3526-luc): > 50000 nM
- EC50 (VEEV V3526-luc; Vero 76, read-out: EC50 V3526-luc): 170 nM
- EC50 (VEEV V3526-luc; in Mus musculus): > 50000 nM
- EC50 (VEEV V3526-luc; read-out: EC50 V3526-luc): 490 nM
- EC50 (VEEV V3526-luc; read-out: EC50 values range): 150 to 680 nM
- EC50 (ZIKV/MR766): 1100 nM
- Log titer inhibition at 5 μM (JEV): −1.3 ± −0.43 Log
- Log reduction (JEV; 5 μM): ~1.3 Log
- Log titer inhibition at 5 μM (Influenza virus A (H1N1)): −3.03 Log
- Log reduction in progeny virus titers (Influenza virus A (H1N1); 5 μM): greater than 3 Log
- Log titer inhibition at 5 μM (YFV 17D): −2.32 Log
- Log titer reduction (YFV 17D; 5 μM): ~2 Log
